Test results published in patent US20240368120A1 (Terns Pharmaceuticals, Inc., priority 2023, published 2024).

Columns and labels:
[1] = Rat pharmacokinetics, oral dosing; type: in vivo, Sprague-Dawley rats; conditions: male, Sprague-Dawley, plasma; for half-life: read-out: Rat T1/2
[2] = Rat pharmacokinetics, intravenous dosing; type: in vivo, Sprague-Dawley rats; conditions: male, Sprague-Dawley, IV bolus dosing at 3.0 mg/kg, plasma
Procedure: Intravenous dosing: Compounds were formulated at 1.0 mg/mL in a solution comprising 5% polyethylene glycol 400 and 95% (12% (w/v) sulfobutyl-β-cyclodextrin in water) (v/v). Formulated compounds were sterile filtered through a 0.22 micron filter before dosing. Compounds were administered to male, 7-11-week-old Sprague-Dawley rats by jugular vein cannula infusion over 30 minutes at a dose of 1 mg/kg. Oral dosing: Compounds were formulated at 1.0 mg/mL in a solution comprising 5% polyethylene glycol 400 and 95% (12% (w/v) sulfobutyl-β-cyclodextrin in water) (v/v). Formulated compounds were administered to male, 7-11 week old Sprague-Dawley rats by oral gavage at a dose of 10 mg/kg or 3 mg/kg.
Sample collection: Blood collections of about 0.2 mL per time point were performed from jugular vein or other suitable site of each animal, into pre-chilled commercial EDTA-K2 tubes and placed on wet ice until centrifugation. Blood samples were processed for plasma by centrifugation at approximately 4° C., 3,200 g for 10 min. Plasma was collected and transferred into pre-labeled 96 well plate or polypropylene tubes, quick frozen over dry ice and kept at −60° C. or lower until
Data analysis: Plasma concentration versus time data was plotted in graph and analyzed by non-compartmental approaches using the Phoenix WinNonlin 6.3 software program. Related PK parameters were calculated according to dosing route, e.g., CL, Vdss and C0 for intravenous administration, Cmax, Tmax or % F for extravascular administration, and T1/2, AUC(0-t), AUC(0-inf), MRT(0-t), MRT(0-inf) for all routes.

Compound | AUC ([1]; oral dosing at 3 mg/kg) | Cmax ([1]; oral dosing at 3 mg/kg) | half-life ([1]; oral dosing at 3 mg/kg) | bioavailability ([1]; oral dosing at 3 mg/kg) | AUC [2] | C0 [2] | half-life ([2]; read-out: Rat T1/2) | AUC ([1]; oral dosing at 10 mg/kg) | Cmax ([1]; oral dosing at 10 mg/kg) | half-life ([1]; oral dosing at 10 mg/kg) | bioavailability ([1]; oral dosing at 10 mg/kg)
COc1cc(C(=O)O)cc2c1nc(CN1CCC(c3cccc(OCc4ccc(C#N)cc4F)n3)CC1)n2C[C@@H]1CCO1 [Compound 8, (S)-2-((4-(6-((4-Cyano-2-fluorobenzyl)oxy)pyridin-2-yl)piperidin-1-yl)methyl)-4-methoxy-1-(oxetan-2-ylmethyl)-1H-benzo[d]imidazole-6-carboxylic acid] | < 500 ng·h/mL | < 500 ng/mL | ≥ 2.5 h | < 25% |  |  |  |  |  |  | 
COc1cc(C(=O)O)cc2c1nc(CN1CCC(c3cccc(OCc4ccc(C#N)cc4F)n3)CC1)n2Cc1cncs1 [Compound 1, 2-((4-(6-((4-Cyano-2-fluorobenzyl)oxy)pyridin-2-yl)piperidin-1-yl)methyl)-4-methoxy-1-(thiazol-5-ylmethyl)-1H-benzo[d]imidazole-6-carboxylic acid] |  |  |  |  | < 500 ng·h/mL | > 2000 ng/mL | < 1.5 h | 500 to 2500 ng·h/mL | 500 to 1000 ng/mL | 1.5 to 2.5 h | 25 to 50%
